Data: the supplement of paper PMC10307832

How the values were obtained:
Experiment in all cases: relative viability (nuclei count vs DMSO), 5 days (fraction); higher = more cells survive
Salubrinal + Tozasertib = compound: O=C(/C=C/c1ccccc1)NC(NC(=S)Nc1cccc2cccnc12)C(Cl)(Cl)Cl [Salubrinal] + Cc1cc(Nc2cc(N3CCN(C)CC3)nc(Sc3ccc(NC(=O)C4CC4)cc3)n2)n[nH]1 [Tozasertib] (partner 0.1 µM)
Method in brief: (§1)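 The day after seeding in 1536-well plates, lung cancer cell lines were treated by pin tool with a single drug, or with a fixed anchor-drug dose together with five library-drug doses (not always all listed) in √10 steps. After 5 days, a combined fix-and-stain solution (final 0.05% Triton X-100, 1% formaldehyde, 1 ug/ml Hoechst) was added. Nuclei counted on 4× images gave relative viability as treated counts over vehicle counts, reported as the median of duplicate plates.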

[1] = compound: Cc1ccc2nc(NCCN)c3ncc(C)n3c2c1 + Cc1nc(Nc2ncc(C(=O)Nc3c(C)cccc3Cl)s2)cc(N2CCN(CCO)CC2)n1 [Dasatinib] (partner 0.075 µM)
Method in brief: as §1

Salubrinal + Pemetrexed = compound: O=C(/C=C/c1ccccc1)NC(NC(=S)Nc1cccc2cccnc12)C(Cl)(Cl)Cl [Salubrinal] + Nc1nc2[nH]cc(CCc3ccc(C(=O)N[C@@H](CCC(=O)O)C(=O)O)cc3)c2c(=O)[nH]1 [Pemetrexed] (partner 0.2 µM)
Method in brief: as §1

Salubrinal + Bortezomib = compound: O=C(/C=C/c1ccccc1)NC(NC(=S)Nc1cccc2cccnc12)C(Cl)(Cl)Cl [Salubrinal] + CC(C)C[C@H](NC(=O)[C@H](Cc1ccccc1)NC(=O)c1cnccn1)B(O)O [Bortezomib] (partner 0.002 µM)
Method in brief: as §1

| Cell Line | relative viability (Salubrinal + Tozasertib; first compound 0.08 µM) | relative viability (Salubrinal + Tozasertib; first compound 0.253 µM) | relative viability (Salubrinal + Tozasertib; first compound 0.8 µM) | relative viability (Salubrinal + Tozasertib; first compound 2.53 µM) | relative viability (Salubrinal + Tozasertib; first compound 8 µM) | relative viability ([1]; first compound 0.04 µM) | relative viability ([1]; first compound 0.1265 µM) | relative viability ([1]; first compound 0.4 µM) | relative viability ([1]; first compound 1.265 µM) | relative viability ([1]; first compound 4 µM) | relative viability (Salubrinal + Pemetrexed; first compound 0.08 µM) | relative viability (Salubrinal + Pemetrexed; first compound 0.8 µM) | relative viability (Salubrinal + Pemetrexed; first compound 2.53 µM) | relative viability (Salubrinal + Pemetrexed; first compound 8 µM) | relative viability (Salubrinal + Bortezomib; first compound 0.08 µM) | relative viability (Salubrinal + Bortezomib; first compound 0.253 µM) | relative viability (Salubrinal + Bortezomib; first compound 0.8 µM) | relative viability (Salubrinal + Bortezomib; first compound 2.53 µM) | relative viability (Salubrinal + Bortezomib; first compound 8 µM) | relative viability (Salubrinal + Pemetrexed; first compound 0.253 µM) |
| --- | --- | --- | --- | --- | --- | --- | --- | --- | --- | --- | --- | --- | --- | --- | --- | --- | --- | --- | --- | --- |
| HCC-366 | 0.106 | 0.0941 | 0.118 | 0.0829 | 0.0635 | 0.561 | 0.685 | 0.672 | 0.579 | 0.629 | 0.194 | 0.165 | 0.153 | 0.161 | 1.21 | 0.608 | 1.22 | 1.08 | 1.05 |  |
| HCC-827 | 0.429 | 0.423 | 0.406 | 0.417 | 0.432 | 0.33 | 0.239 | 0.291 | 0.266 | 0.227 | 0.503 | 0.278 | 0.227 | 0.245 | 0.98 | 0.955 | 1.23 | 1.05 | 1.07 | 0.276 |
| HOP-62 | 0.334 | 0.378 | 0.409 | 0.347 | 0.334 | 0.772 | 0.626 | 0.644 | 0.634 | 0.649 | 0.244 | 0.317 | 0.315 | 0.331 | 0.392 | 0.576 | 0.601 | 0.874 | 1.04 | 0.267 |
| IA-LM |  |  |  |  |  |  |  |  |  |  |  |  |  |  | 1.01 | 0.874 | 0.895 | 0.68 | 0.758 |  |
| LC-2-ad | 0.45 | 0.449 | 0.478 | 0.408 | 0.354 | 0.701 | 0.582 | 0.497 | 0.592 | 0.324 | 0.242 | 0.268 | 0.272 | 0.264 | 0.992 | 0.92 | 1.16 | 1 | 1.02 | 0.276 |
| LCLC-97TM1 | 0.238 | 0.157 | 0.266 | 0.188 | 0.165 | 0.941 | 0.816 | 0.85 | 0.911 | 0.732 | 0.169 | 0.19 | 0.158 | 0.158 | 0.995 |  | 1.22 | 0.626 | 0.637 | 0.218 |
| LK-2 | 0.158 | 0.197 | 0.178 | 0.198 | 0.176 | 0.251 | 0.223 | 0.27 | 0.229 | 0.268 | 0.321 | 0.463 | 0.335 | 0.254 |  |  |  |  |  | 0.24 |
| NCI-H358 | 0.107 | 0.12 | 0.111 | 0.108 | 0.0983 | 0.177 | 0.157 | 0.182 | 0.154 | 0.22 | 0.181 | 0.157 | 0.153 | 0.168 |  |  |  |  |  | 0.176 |
| NCI-H522 | 0.566 | 0.588 | 0.524 | 0.589 | 0.569 | 0.882 | 0.966 | 0.827 | 0.806 | 0.842 | 1.24 | 1.09 | 1.06 | 1.07 |  |  |  |  |  | 0.933 |
| NCI-H727 | 0.651 | 0.718 | 0.563 | 0.608 | 0.575 | 0.4 |  | 0.338 | 0.321 | 0.365 |  |  |  |  | 0.748 | 0.504 | 0.983 | 0.862 | 0.741 |  |
| NCI-H1299 |  |  |  |  |  |  |  |  |  |  |  |  |  |  | 1.05 | 0.971 | 1.02 | 1.02 | 1.02 |  |
| NCI-H1395 | 0.822 | 0.849 | 0.72 | 0.714 | 0.805 | 0.48 | 0.425 | 0.374 | 0.37 | 0.407 | 0.96 | 1.03 | 0.984 | 0.718 |  |  |  |  |  | 1.09 |
| NCI-H1563 |  |  |  |  |  | 0.459 | 0.488 | 0.539 | 0.433 | 0.454 | 0.671 | 0.907 | 0.784 | 0.798 | 0.791 | 0.937 | 0.859 | 0.844 | 0.776 | 0.761 |
| NCI-H1623 | 0.431 | 0.434 | 0.445 | 0.396 | 0.412 | 0.525 | 0.664 | 0.523 | 0.482 | 0.494 |  |  |  |  |  |  |  |  |  |  |
| NCI-H1648 | 0.466 | 0.586 | 0.334 | 0.501 | 0.247 |  |  |  |  |  | 0.843 | 0.759 | 0.705 | 0.584 |  |  |  |  |  | 0.637 |
| NCI-H1703 |  |  |  |  |  |  |  |  |  |  |  |  |  |  | 0.365 | 0.268 | 0.242 | 0.322 | 0.293 |  |
| NCI-H1792 |  |  |  |  |  | 0.741 | 0.624 | 0.816 | 0.704 | 0.382 | 1.07 | 1.24 | 0.795 | 0.572 | 1.2 |  | 1.23 | 0.92 | 0.806 |  |
| NCI-H1793 | 0.504 | 0.637 | 0.234 | 0.26 | 0.326 | 0.386 | 0.417 | 0.389 | 0.332 | 0.384 | 1.13 | 1.24 | 0.805 | 0.76 |  |  |  |  |  | 0.81 |
| NCI-H1944 | 0.269 | 0.269 | 0.276 | 0.229 | 0.278 | 0.242 | 0.216 | 0.212 | 0.269 | 0.248 | 0.607 | 0.797 | 0.752 | 0.789 |  |  |  |  |  | 0.669 |
| NCI-H2170 | 1.02 | 0.778 | 0.783 | 0.77 | 0.665 | 0.565 | 0.646 | 0.58 | 0.58 | 0.564 | 0.258 | 0.318 | 0.258 | 0.257 |  |  |  |  |  | 0.273 |
| NCI-H2342 | 0.457 | 0.503 | 0.527 | 0.583 | 0.533 | 0.363 | 0.363 | 0.328 | 0.284 | 0.313 | 0.722 | 0.937 | 0.758 | 0.826 |  |  |  |  |  | 0.772 |
| SK-MES-1 | 1.01 | 0.816 | 1.04 | 0.895 | 0.694 | 0.489 | 0.339 | 0.392 | 0.35 | 0.305 | 0.993 | 1.11 | 0.896 | 0.914 |  |  |  |  |  | 0.784 |
| SW 900 | 0.539 |  | 0.681 | 0.568 | 0.337 | 0.419 | 0.759 |  | 0.459 | 0.408 | 0.508 | 0.505 | 0.485 | 0.468 |  |  |  |  |  | 0.423 |
